From ChEMBL document CHEMBL5107997, “Discovery and biological evaluation of 1-{2,7-diazaspiro[3.5]nonan-2-yl}prop-2-en-1-one derivatives as covalent inhibitors of KRAS G12C with favorable metabolic stability and anti-tumor activity” (Bioorg Med Chem, 2022) come the findings set out here.

Each structure is given as a SMILES string.

The IC50 is the concentration needed to halve the response being measured. For orientation: solubility means the dissolved amount per volume that the medium holds. Read a low solubility as little dissolved substance. Broadly, the inhibition is how much of the control response was suppressed.

Data set [1] addresses GTPase KRas (Homo sapiens, UniProt P01116, G12C). Put plainly: Inhibition of biotinylated Avi-tagged GDP-bound KRAS G12C mutant (1 to 185 residues) (unknown origin) assessed as inhibition of KRAS G12C mutant/SOS/GST-tagged c-Raf complex formation incubated for 1 hr and measured by fluorescence based assay.
The nature of data set [2]: Downregulation of pERK levels in human NCI-H1373 cells measured after 2 hrs by EISA. It is filed as functional, cell-based. As to conditions: NCI-H1373, 2 h.
Data set [3] in a line: Downregulation of pERK levels in human A-375 cells measured after 2 hrs by EISA. It is filed as functional, cell-based. The conditions noted are these: A-375, 2 h.
Data set [4] deals with NCI-H1373. As to the kind of experiment: Growth inhibition of human NCI-H1373 cells assessed as cell viability after 6 days by CellTiter-Glo assay. It is filed as functional, cell-based. The conditions noted are these: NCI-H1373, 144 h.
The test system of data set [5] is A-375. As to the kind of experiment: Growth inhibition of human A-375 cells assessed as cell viability after 6 days by CellTiter-Glo assay. Format: functional, cell-based. The conditions noted are these: A-375, 144 h. Background: Cellular ATP, detected with luciferase, serves as a proxy for viable cell number.
Data set [6] in a line: Aqueous solubility of the compound in pH 6.8 JP2 fluid measured after 20 hrs by disintegration test. It is filed as physicochemical.
Data set [7] can be described thus: Intrinsic clearance in human liver microsomes at 0.1 to 0.2 umol/L measured after 30 mins in presence of NADPH by LC-MS/MS analysis. It is filed as ADME, Microsome. The conditions noted are these: dose 0.1-0.2 µmol/L, read-out: CLH.
Data set [8] is described as follows: Intrinsic clearance in mouse liver microsomes at 0.1 to 0.2 umol/L measured after 30 mins in presence of NADPH by LC-MS/MS analysis. It is filed as ADME, Microsome. As to conditions: dose 0.1-0.2 µmol/L, read-out: CLH. A general note: Microsomes from liver hold many membrane-bound enzymes, among them those of drug oxidation.
Data set [9] is described as follows: Plasma concentration in nude mouse xenografted with human NCI-H1373 cells at 100 mg/kg, po administered as single dose and measured at 1 hr by LC/MS-MS analysis. Format: ADME, organism-based.
The nature of data set [10]: Plasma concentration in nude mouse xenografted with human NCI-H1373 cells at 100 mg/kg, po administered as single dose and measured at 6 hr by LC/MS-MS analysis. Format: ADME, organism-based.
A short description of data set [11]: Drug uptake in tumor of nude mouse xenografted with human NCI-H1373 cells at 100 mg/kg, po administered as single dose and measured at 6 hr by LC/MS-MS analysis. As to conditions: read-out: Drug uptake. It is filed as ADME, organism-based, Neoplasm.
A short description of data set [12]: Plasma concentration in nude mouse xenografted with human NCI-H1373 cells at 30 mg/kg, sc administered as single dose and measured at 1 hr by LC/MS-MS analysis. Format: ADME, organism-based. In general terms: In xenograft studies the graft and the host belong to different species.
Data set [13] is described as follows: Plasma concentration in nude mouse xenografted with human NCI-H1373 cells at 30 mg/kg, sc administered as single dose and measured at 6 hr by LC/MS-MS analysis. It is filed as ADME, organism-based.
A short description of data set [14]: Drug uptake in tumor of nude mouse xenografted with human NCI-H1373 cells at 30 mg/kg, sc administered as single dose and measured at 6 hr by LC/MS-MS analysis. It is filed as ADME, organism-based, Neoplasm. As to conditions: read-out: Drug uptake.
For data set [15], the system named is NCI-H1373. As to the kind of experiment: Antitumor activity against human NCI-H1373 cells xenografted in nude mouse assessed as inhibition of p-ERK levels at 33 mg/kg, sc administered as single dose and measured after 6 hrs. It is filed as functional.
For data set [16], the system named is NCI-H1373. As to the kind of experiment: Antitumor activity against human NCI-H1373 cells xenografted in nude mouse assessed as tumor growth inhibition at 3 mg/kg, sc administered as single dose. It is filed as functional. The conditions noted are these: read-out: TGI.
For data set [17], the system named is NCI-H1373. Put plainly: Antitumor activity against human NCI-H1373 cells xenografted in nude mouse assessed as tumor growth inhibition at 10 mg/kg, sc administered as single dose. Format: functional. The conditions noted are these: read-out: TGI.
The subject of data set [18] is NCI-H1373. As to the kind of experiment: Antitumor activity against human NCI-H1373 cells xenografted in nude mouse assessed as tumor growth inhibition at 30 mg/kg, sc administered as single dose. As to conditions: read-out: TGI. Format: functional.
The nature of data set [19]: Toxicity in nude mouse xenografted with human NCI-H1373 cells assessed as effect on body weight at 3 to 30 mg/kg, sc. As to conditions: in vivo, dose 3-30 mg/kg. Format: organism-based.
Data set [20] has as its system GTPase KRas (Homo sapiens), P01116 [G12C]. As to the kind of experiment: Inhibition of biotinylated Avi-tagged GDP-bound KRAS G12C mutant (1 to 185 residues) (unknown origin) assessed as inhibition of KRAS G12C mutant/SOS/GST-tagged c-Raf complex formation at 3 uM incubated for 1 hr and measured by fluorescence based assay relative to control.

As for `C=CC(=O)N1CC2(CCN(c3nc(NC4CCN(C)CC4)nc4c(F)c(-c5c(C)ccc6[nH]ncc56)c(Cl)cc34)CC2)C1`, the IC50 in data set [1] was 0.35 µM; in data set [2], 0.38 µM; in data set [3], > 10 µM; in data set [4], 0.39 µM; in data set [5], 2.8 µM.
`C=CC(=O)N1CC2(CCN(c3nc(OC4CCN(CC)CC4)nc4c(F)c(-c5c(C)ccc6[nH]ncc56)c(Cl)cc34)CC2)C1`: the IC50 was 0.077 µM in [1], 0.14 µM in [2], 0.12 µM in [4] and 3.5 µM in data set [5]. Further, in data set [6], the solubility at 20 h is > 100 µM. Further, the CLint scaled in [7] is 37 mL/min/kg; in data set [8] it was 115 mL/min/kg. Besides, the results for the concentration at 1 h in [9] and in [12] were 670 nM and 3800 nM, respectively. Further, the concentration at 6 h in data set [10] is 130 nM; in [11] it was 70 nM; in data set [13], 720 nM; in [14] it was 740 nM. For the same molecule, the inhibition in vivo at 33 mg/kg in data set [15] turned out to be 63%. Moreover, the inhibition in vivo at 3 mg/kg in [16] turned out to be 33%. Moreover, the inhibition in vivo at 10 mg/kg in data set [17] is 50%. In addition, the inhibition in vivo at 30 mg/kg in [18] is 92%. Also, the Activity entry in data set [19] is given as “Non-Toxic”.
Regarding `C=CC(=O)N1CC2(CCN(c3nc(OCC4CCN(C)CC4)nc4c(F)c(-c5c(C)ccc6[nH]ncc56)c(Cl)cc34)CC2)C1`, in data set [1], the IC50 is 0.13 µM.
The same measure, in the same setting: next, `C=CC(=O)N1CCC2(CC1)CN(c1nc(NC3CCN(C)CC3)nc3c(F)c(-c4c(C)ccc5[nH]ncc45)c(Cl)cc13)C2`: > 30 µM.
On to `C=CC(=O)N1CC2(C1)CN(c1nc(NC3CCN(C)CC3)nc3c(F)c(-c4c(C)ccc5[nH]ncc45)c(Cl)cc13)C2`, for which the concentration for half-maximal inhibition (IC50) in data set [1] is 3 µM. For the same molecule, in data set [20], the inhibition came to 60%.
Regarding `C=CC(=O)N1CCC2(C1)CN(c1nc(NC3CCN(C)CC3)nc3c(F)c(-c4c(C)ccc5[nH]ncc45)c(Cl)cc13)C2`, in [1], the IC50 came to 18 µM.
As to `C=CC(=O)N1CC2(CCN(c3nc(NC4CCN(C)CC4)nc4c(F)c(-c5c(C)ccc6[nH]ncc56)c(Cl)cc34)C2)C1`, the IC50 was 0.16 µM in data set [1]; 0.55 µM in [2]; > 10 µM in data set [3]; 0.95 µM in [4]; 4 µM in data set [5].
In the case of `C=CC(=O)N1CC2(CCN(c3nc(OC4CCOCC4)nc4c(F)c(-c5c(C)ccc6[nH]ncc56)c(Cl)cc34)CC2)C1`, in data set [1], the IC50 was determined as 2.1 µM.
Same read-out and setting: the value for `C=CC(=O)N1CC2(CCN(c3nc(OCCCN(C)C)nc4c(F)c(-c5c(C)ccc6[nH]ncc56)c(Cl)cc34)CC2)C1` was 0.26 µM.
`C=CC(=O)N1CC2(CCN(c3nc(OC4CCN(C)CC4)nc4c(F)c(-c5c(C)ccc6[nH]ncc56)c(Cl)cc34)CC2)C1`: the IC50 in [1] came out at 0.07 µM; in data set [2] it was 0.096 µM; in [4] it was 0.1 µM; in data set [5] it was 2.9 µM. Besides, in [6], the solubility at 20 h is > 100 µM. Moreover, the CLint scaled worked out at 35 mL/min/kg in data set [7] and 115 mL/min/kg in data set [8].
`C=CC(=O)N1CC2(CCN(c3nc(N(C)C4CCN(CC)CC4)nc4c(F)c(-c5c(C)ccc6[nH]ncc56)c(Cl)cc34)CC2)C1`: the IC50 in data set [1] is 3.2 µM.
The same measure, in the same setting: the value for `C=CC(=O)N1CC2(CCN(c3nc(OCCCN4CCOCC4)nc4c(F)c(-c5c(C)ccc6[nH]ncc56)c(Cl)cc34)CC2)C1` was 0.65 µM; that for `C=CC(=O)N1CC2(CCN(c3nc(OC4(CN(C)C)CCC4)nc4c(F)c(-c5c(C)ccc6[nH]ncc56)c(Cl)cc34)CC2)C1` was 0.77 µM.
As for `C=CC(=O)N1CCN(c2nc(NC3CCN(C)CC3)nc3c(F)c(-c4c(C)ccc5[nH]ncc45)c(Cl)cc23)CC1`, the IC50 in data set [1] is 0.47 µM; in data set [2], 0.43 µM; in [3] it was > 10 µM; in data set [4] it was 0.65 µM; in data set [5], 1.1 µM.
With `C=CC(=O)N1CC2(CCN(c3nc(OCCN(C)C)nc4c(F)c(-c5c(C)ccc6[nH]ncc56)c(Cl)cc34)CC2)C1`, in [1], the IC50 was determined as 0.34 µM.
The same measure, in the same setting: next, `C=CC(=O)N1CC2(CCN(c3nc(SC4CCN(CC)CC4)nc4c(F)c(-c5c(C)ccc6[nH]ncc56)c(Cl)cc34)CC2)C1`: 0.94 µM; `C=CC(=O)N1CC2(CCN(c3nc(OCCCN4CCCCC4)nc4c(F)c(-c5c(C)ccc6[nH]ncc56)c(Cl)cc34)CC2)C1`: 0.37 µM.
Same read-out and setting: the value for `CCN1CCC(Oc2nc(N3CCC4(CC3)CN(C(=O)/C=C/CN3CCOCC3)C4)c3cc(Cl)c(-c4c(C)ccc5[nH]ncc45)c(F)c3n2)CC1` was > 10 µM.
